Data taken from the NIST ThermoML archive (doi:10.1021/je060271a).
Where “and” joins values, the source holds several entries; their conditions need not be identical. Equal values may be shown once. Numbers after ± are expanded uncertainties.

Details: Liquid, Vibrating tube method

CCCCCC(=O)OCC(COC(=O)CCCCC)(COC(=O)CCCCC)COC(=O)CCCCC [pentaerythritol tetrahexanoate]
Details	mass density
343.15 K, 29943 kPa	978.1 ± 1.2 kg/m3
343.15 K, 29977 kPa	978.2 ± 1.2 kg/m3
343.15 K, 30005 kPa	978.1 ± 1.2 kg/m3
343.15 K, 30034 kPa	978.2 ± 1.2 kg/m3
343.15 K, 30068 kPa	978.2 ± 1.2 kg/m3
343.15 K, 34037 kPa	980.7 ± 1.2 kg/m3 and 980.8 ± 1.2 kg/m3
343.15 K, 34038 kPa	980.6 ± 1.2 kg/m3
343.15 K, 34070 kPa	980.7 ± 1.2 kg/m3
343.15 K, 34080 kPa	980.7 ± 1.2 kg/m3
343.15 K, 34257 kPa	980.8 ± 1.2 kg/m3
343.15 K, 34258 kPa	980.9 ± 1.2 kg/m3
343.15 K, 34259 kPa	981 ± 1.2 kg/m3 and 980.9 ± 1.2 kg/m3
343.15 K, 34260 kPa	980.7 ± 1.2 kg/m3 and 980.8 ± 1.2 kg/m3
343.15 K, 34261 kPa	980.8 ± 1.2 kg/m3
343.15 K, 34262 kPa	980.8 ± 1.2 kg/m3 and 980.9 ± 1.2 kg/m3
343.15 K, 34263 kPa	980.7 ± 1.2 kg/m3
343.15 K, 34264 kPa	980.9 ± 1.2 kg/m3 and 980.8 ± 1.2 kg/m3
343.15 K, 34271 kPa	980.8 ± 1.2 kg/m3
343.15 K, 34272 kPa	980.9 ± 1.2 kg/m3
343.15 K, 34279 kPa	980.9 ± 1.2 kg/m3 and 981 ± 1.2 kg/m3
343.15 K, 34280 kPa	980.8 ± 1.2 kg/m3 and 980.9 ± 1.2 kg/m3
343.15 K, 34281 kPa	980.9 ± 1.2 kg/m3
343.15 K, 34282 kPa	980.8 ± 1.2 kg/m3 and 980.9 ± 1.2 kg/m3
343.16 K, 205.2 kPa	957.2 ± 1.2 kg/m3
343.16 K, 205.3 kPa	957.3 ± 1.2 kg/m3
343.16 K, 205.5 kPa	957.1 ± 1.2 kg/m3 and 957.3 ± 1.2 kg/m3
343.16 K, 205.7 kPa	957.3 ± 1.2 kg/m3
343.16 K, 205.9 kPa	957.3 ± 1.2 kg/m3 and 957.2 ± 1.2 kg/m3
343.16 K, 206 kPa	957.2 ± 1.2 kg/m3 and 957.3 ± 1.2 kg/m3
343.16 K, 206.2 kPa	957.2 ± 1.2 kg/m3 and 957.3 ± 1.2 kg/m3
343.16 K, 206.4 kPa	957.3 ± 1.2 kg/m3 and 957.2 ± 1.2 kg/m3
343.16 K, 206.6 kPa	957.2 ± 1.2 kg/m3
343.16 K, 206.7 kPa	957.2 ± 1.2 kg/m3
343.16 K, 207.1 kPa	957.3 ± 1.2 kg/m3
343.16 K, 207.4 kPa	957.3 ± 1.2 kg/m3 and 957.1 ± 1.2 kg/m3
343.16 K, 207.6 kPa	957.2 ± 1.2 kg/m3 and 957.1 ± 1.2 kg/m3
343.16 K, 207.8 kPa	957.3 ± 1.2 kg/m3
343.16 K, 207.9 kPa	957.3 ± 1.2 kg/m3 and 957.2 ± 1.2 kg/m3
343.16 K, 208 kPa	957.1 ± 1.2 kg/m3 and 957.3 ± 1.2 kg/m3
343.16 K, 208.1 kPa	957.2 ± 1.2 kg/m3 and 957.3 ± 1.2 kg/m3
343.16 K, 208.5 kPa	957.4 ± 1.2 kg/m3 and 957.2 ± 1.2 kg/m3 and 957.3 ± 1.2 kg/m3
343.16 K, 208.6 kPa	957.2 ± 1.2 kg/m3 and 957.1 ± 1.2 kg/m3
343.16 K, 208.7 kPa	957.2 ± 1.2 kg/m3
343.16 K, 209.9 kPa	957.1 ± 1.2 kg/m3
343.16 K, 210 kPa	957.4 ± 1.2 kg/m3 and 957.2 ± 1.2 kg/m3
343.16 K, 210.2 kPa	957.4 ± 1.2 kg/m3
343.16 K, 210.4 kPa	957.2 ± 1.2 kg/m3
343.16 K, 210.6 kPa	957.2 ± 1.2 kg/m3
343.16 K, 210.9 kPa	957.2 ± 1.2 kg/m3
343.16 K, 211.1 kPa	957.3 ± 1.2 kg/m3 and 957.2 ± 1.2 kg/m3
343.16 K, 211.3 kPa	957.2 ± 1.2 kg/m3 and 957.3 ± 1.2 kg/m3
343.16 K, 211.4 kPa	957.3 ± 1.2 kg/m3
343.16 K, 211.6 kPa	957.2 ± 1.2 kg/m3
343.16 K, 211.8 kPa	957.2 ± 1.2 kg/m3
343.16 K, 211.9 kPa	957.4 ± 1.2 kg/m3 and 957.2 ± 1.2 kg/m3 and 957.5 ± 1.2 kg/m3
343.16 K, 212.1 kPa	957 ± 1.2 kg/m3
343.16 K, 212.3 kPa	957.3 ± 1.2 kg/m3
343.16 K, 212.6 kPa	957.3 ± 1.2 kg/m3
343.16 K, 214.2 kPa	957.2 ± 1.2 kg/m3 and 957.4 ± 1.2 kg/m3
343.16 K, 214.4 kPa	957.2 ± 1.2 kg/m3
343.16 K, 214.5 kPa	957.3 ± 1.2 kg/m3
343.16 K, 214.6 kPa	957.2 ± 1.2 kg/m3
343.16 K, 214.7 kPa	957.2 ± 1.2 kg/m3
343.16 K, 214.9 kPa	957.3 ± 1.2 kg/m3 and 957.2 ± 1.2 kg/m3
343.16 K, 215.1 kPa	957.2 ± 1.2 kg/m3
343.16 K, 215.8 kPa	957.2 ± 1.2 kg/m3
343.16 K, 216.1 kPa	957.3 ± 1.2 kg/m3 and 957.1 ± 1.2 kg/m3
343.16 K, 216.3 kPa	957.3 ± 1.2 kg/m3 and 957.4 ± 1.2 kg/m3
343.16 K, 216.8 kPa	957.4 ± 1.2 kg/m3
343.16 K, 217 kPa	957.3 ± 1.2 kg/m3 and 957.2 ± 1.2 kg/m3
343.16 K, 217.5 kPa	957.4 ± 1.2 kg/m3 and 957.3 ± 1.2 kg/m3
343.16 K, 217.7 kPa	957.1 ± 1.2 kg/m3 and 957.5 ± 1.2 kg/m3 and 957.2 ± 1.2 kg/m3
343.16 K, 217.9 kPa	957.3 ± 1.2 kg/m3 and 957.2 ± 1.2 kg/m3
343.16 K, 218 kPa	957.2 ± 1.2 kg/m3 and 957.3 ± 1.2 kg/m3
343.16 K, 218.2 kPa	957.3 ± 1.2 kg/m3 and 957.2 ± 1.2 kg/m3
343.16 K, 218.6 kPa	957.3 ± 1.2 kg/m3 and 957.2 ± 1.2 kg/m3
343.16 K, 218.7 kPa	957.4 ± 1.2 kg/m3
343.16 K, 219.6 kPa	957.3 ± 1.2 kg/m3
343.16 K, 219.8 kPa	957.3 ± 1.2 kg/m3
343.16 K, 221 kPa	957.2 ± 1.2 kg/m3
343.16 K, 221.2 kPa	957.2 ± 1.2 kg/m3 and 957.3 ± 1.2 kg/m3
343.16 K, 221.3 kPa	957.3 ± 1.2 kg/m3
343.16 K, 221.5 kPa	957.2 ± 1.2 kg/m3
343.16 K, 221.7 kPa	957.1 ± 1.2 kg/m3 and 957.3 ± 1.2 kg/m3
343.16 K, 221.9 kPa	957.2 ± 1.2 kg/m3
343.16 K, 222.1 kPa	957.3 ± 1.2 kg/m3
343.16 K, 222.2 kPa	957.3 ± 1.2 kg/m3 and 957.2 ± 1.2 kg/m3
343.16 K, 222.4 kPa	957.3 ± 1.2 kg/m3
343.16 K, 222.6 kPa	957.3 ± 1.2 kg/m3 and 957.2 ± 1.2 kg/m3
343.16 K, 224.6 kPa	957.2 ± 1.2 kg/m3
343.16 K, 224.8 kPa	957.1 ± 1.2 kg/m3
343.16 K, 225.2 kPa	957.3 ± 1.2 kg/m3
343.16 K, 225.5 kPa	957.3 ± 1.2 kg/m3 and 957.2 ± 1.2 kg/m3
343.16 K, 225.7 kPa	957.2 ± 1.2 kg/m3
343.16 K, 226 kPa	957.2 ± 1.2 kg/m3
343.16 K, 226.2 kPa	957.2 ± 1.2 kg/m3
343.16 K, 226.4 kPa	957.1 ± 1.2 kg/m3
343.16 K, 226.6 kPa	957.3 ± 1.2 kg/m3
343.16 K, 226.7 kPa	957.2 ± 1.2 kg/m3
343.16 K, 227.3 kPa	957.3 ± 1.2 kg/m3
343.16 K, 227.4 kPa	957.3 ± 1.2 kg/m3
343.16 K, 227.6 kPa	957.3 ± 1.2 kg/m3
343.16 K, 227.8 kPa	957.3 ± 1.2 kg/m3
343.16 K, 227.9 kPa	957.2 ± 1.2 kg/m3
343.16 K, 228 kPa	957.3 ± 1.2 kg/m3 and 957.2 ± 1.2 kg/m3
343.16 K, 228.1 kPa	957.4 ± 1.2 kg/m3
343.16 K, 228.3 kPa	957.1 ± 1.2 kg/m3 and 957.2 ± 1.2 kg/m3
343.16 K, 228.8 kPa	957.2 ± 1.2 kg/m3 and 957.3 ± 1.2 kg/m3
343.16 K, 229 kPa	957.3 ± 1.2 kg/m3
343.16 K, 229.2 kPa	957.3 ± 1.2 kg/m3 and 957.2 ± 1.2 kg/m3
343.16 K, 229.3 kPa	957.2 ± 1.2 kg/m3
343.16 K, 229.7 kPa	957.1 ± 1.2 kg/m3 and 957.3 ± 1.2 kg/m3
343.16 K, 229.9 kPa	957.3 ± 1.2 kg/m3
343.16 K, 230.1 kPa	957.4 ± 1.2 kg/m3
343.16 K, 230.4 kPa	957.3 ± 1.2 kg/m3
343.16 K, 230.6 kPa	957.2 ± 1.2 kg/m3
343.16 K, 230.7 kPa	957.2 ± 1.2 kg/m3
343.16 K, 230.9 kPa	957.3 ± 1.2 kg/m3
343.16 K, 231.4 kPa	957.1 ± 1.2 kg/m3
343.16 K, 239.3 kPa	957.2 ± 1.2 kg/m3
343.16 K, 239.4 kPa	957.2 ± 1.2 kg/m3
343.16 K, 239.6 kPa	957.3 ± 1.2 kg/m3
343.16 K, 239.8 kPa	957.2 ± 1.2 kg/m3
343.16 K, 239.9 kPa	957.3 ± 1.2 kg/m3
343.16 K, 241.9 kPa	957.3 ± 1.2 kg/m3
343.16 K, 246.2 kPa	957.2 ± 1.2 kg/m3
343.16 K, 246.5 kPa	957.2 ± 1.2 kg/m3
343.16 K, 246.9 kPa	957.2 ± 1.2 kg/m3
343.16 K, 247.1 kPa	957.2 ± 1.2 kg/m3
343.16 K, 247.2 kPa	957.3 ± 1.2 kg/m3
343.16 K, 247.4 kPa	957.3 ± 1.2 kg/m3
343.16 K, 247.6 kPa	957.2 ± 1.2 kg/m3 and 957.3 ± 1.2 kg/m3
343.16 K, 247.8 kPa	957.2 ± 1.2 kg/m3 and 957.3 ± 1.2 kg/m3
343.16 K, 247.9 kPa	957.4 ± 1.2 kg/m3 and 957.3 ± 1.2 kg/m3
343.16 K, 248.1 kPa	957.4 ± 1.2 kg/m3
343.16 K, 248.3 kPa	957.3 ± 1.2 kg/m3
343.16 K, 248.6 kPa	957.3 ± 1.2 kg/m3
343.16 K, 248.8 kPa	957.3 ± 1.2 kg/m3 and 957.2 ± 1.2 kg/m3
343.16 K, 249 kPa	957.2 ± 1.2 kg/m3
343.16 K, 249.2 kPa	957.2 ± 1.2 kg/m3
343.16 K, 249.8 kPa	957.2 ± 1.2 kg/m3
343.16 K, 250.4 kPa	957.2 ± 1.2 kg/m3
343.16 K, 250.6 kPa	957.3 ± 1.2 kg/m3
343.16 K, 250.7 kPa	957.1 ± 1.2 kg/m3
343.16 K, 250.9 kPa	957.3 ± 1.2 kg/m3 and 957.2 ± 1.2 kg/m3
